Test systems include DMS-114; XF498; DLD-1; M19-MEL; HOP-18; RXF 631; T47D; BT-549; Hs-578T.
Test in all cases: inhibition of tumour cell growth, NCI panel, 48 h

This is an account of results in ChEMBL document CHEMBL1201862, “PubChem BioAssay data set” (2004).

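Compound exposure: 48 hours, 5 concentrations, 96-well plates. GI50 is the concentration that inhibits growth by half.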 Activity calls are given as the source filed them. Cut-off read from the data, not from the text of the source: active = GI50 up to about 1.1 µM and inactive = higher. Bounds are passed on as bounds.

As to `COc1ccc(C(C2=C(C)C(=O)c3ccccc3C2=O)c2ccc(C(C)C)cc(=O)c2O)cc1` (stereo not given), the GI50 with DMS-114 is 2.82 µM (inactive); in the test with XF498 it was 0.685 µM (active); with DLD-1, 4.79 µM (inactive); in the test on M19-MEL it was 2.22 µM (inactive).

As to `COc1cc(/C=C/C(=O)c2sc(-n3nc(-c4ccccc4)cc3-c3ccccc3)nc2C)ccc1O`, the GI50 was 26.5 µM (inactive) in the test on HOP-18; > 100 µM (inactive) in the test with RXF 631; 5.35 µM (inactive) in the test with DMS-114; > 100 µM (inactive) with DLD-1; > 100 µM (inactive) in the test with M19-MEL.

In the case of `O=C(COc1ccc(/C=C/C(=O)c2ccc(Cl)cc2)cc1)Nc1c(Cl)cccc1Cl`, the GI50 in the test with HOP-18 was > 100 µM (inactive); with RXF 631, > 100 µM (inactive); with DMS-114, 33.3 µM (inactive); in the test on DLD-1, > 100 µM (inactive); in the test on M19-MEL, > 100 µM (inactive).

For `OC(c1ccccc1)(c1ccccc1)c1ccccn1`, the GI50 in the test on HOP-18 was > 100 µM (inactive); in the test on RXF 631, > 100 µM (inactive); in the test on DMS-114 it was 72.9 µM (inactive); in the test on XF498, > 100 µM (inactive); in the test on DLD-1, > 100 µM (inactive); with M19-MEL, > 100 µM (inactive).

Consider `CC(C)OC(=O)Nc1c([N+](=O)[O-])cc(C(F)(F)F)cc1[N+](=O)[O-]`, for which the GI50 with HOP-18 was 21.6 µM (inactive); with XF498, 28.1 µM (inactive); in the test with DLD-1, > 100 µM (inactive); in the test on T47D, > 100 µM (inactive); in the test on BT-549, > 100 µM (inactive); in the test with Hs-578T it was 35.1 µM (inactive).

Consider `N#CC1(C#N)C2C=CC(c3coc4cccc2c34)C1(C#N)C#N` (stereo not given), for which the GI50 was 16.6 µM (inactive) in the test with HOP-18; 5.11 µM (inactive) in the test on DMS-114; 4.99 µM (inactive) with XF498; 2.02 µM (inactive) in the test with DLD-1; 3.05 µM (inactive) in the test with M19-MEL.

Consider `O=C1OC(O)c2cc3c(cc21)OCO3` (stereo not given), for which the GI50 in the test with DMS-114, in the test with XF498, with DLD-1 and with M19-MEL was > 100 µM (inactive) each time.

Consider `COc1cc(CC(=O)c2cc3c(cc2-c2ccccc2)OCO3)cc(OC)c1OC`, for which the GI50 with HOP-18 is 16 µM (inactive); with DMS-114, 16.6 µM (inactive); with XF498, 17.1 µM (inactive); in the test with DLD-1 it was 81.1 µM (inactive).

For the molecule `C/C=C1\Oc2ccc(OC)cc2S1(=O)=O`, the GI50 in the test on HOP-18, in the test with DMS-114, with DLD-1 and in the test on M19-MEL was > 100 µM (inactive) in each case.

On to `CCOC(=O)c1cc2c3c(c(O)c(OC)c2s1)N(C(=O)c1cc2c4c(c(O)c(OC)c2s1)N(C(C)=O)CC4)CC3`, for which the GI50 is > 100 µM (inactive) in the test with HOP-18; 9.08 µM (inactive) with RXF 631; > 100 µM (inactive) with DMS-114; 32.1 µM (inactive) with XF498; > 100 µM (inactive) in the test on DLD-1; > 100 µM (inactive) in the test on M19-MEL.

On to `CCCCCCCCCCCCCCCC(=O)OCC1OC(N2C(=O)/C(=N\NC(N)=S)c3ccc([N+](=O)[O-])cc32)C(OC(C)=O)C1OC(C)=O` (stereo not given), for which the GI50 was > 100 µM (inactive) in the test on HOP-18; > 100 µM (inactive) with RXF 631; 66.7 µM (inactive) in the test on DMS-114; > 100 µM (inactive) in the test with XF498; 77.1 µM (inactive) in the test on DLD-1; > 100 µM (inactive) with M19-MEL.

Take `CC(C)CC1CC2C(=O)N(c3ccccc3)C(=O)C2c2[nH]c3ccccc3c21` (stereo not given): the GI50 with HOP-18 was 11.4 µM (inactive); in the test with RXF 631 it was 15.2 µM (inactive); in the test on DMS-114, 15.9 µM (inactive); in the test with XF498, 20.3 µM (inactive); with DLD-1, 29 µM (inactive); in the test with M19-MEL it was 34.2 µM (inactive).

`O=C1C2=C(c3ccccc31)C(c1ccccc1Cl)N1C(=O)CCSC1=N2` (stereo not given): the GI50 in the test with RXF 631 is > 100 µM (inactive); with DMS-114, > 100 µM (inactive); with XF498 it was 79.3 µM (inactive); with DLD-1, > 100 µM (inactive); with M19-MEL it was > 100 µM (inactive).

As for `C=C(CN(CC(=C)C(=O)c1ccccc1)C(C)(C)C)C(=O)c1ccccc1`, the GI50 with HOP-18 is 5.42 µM (inactive); in the test on DMS-114 it was 16.9 µM (inactive); in the test on XF498 it was 6.58 µM (inactive); in the test on DLD-1, 2.9 µM (inactive); in the test with M19-MEL, 15.7 µM (inactive).

As to `COC1CCC(=C2C(=O)OC(C)(C)OC2=O)N1` (stereo not given), the GI50 in the test on HOP-18, in the test on DMS-114, with XF498, in the test on DLD-1 and with M19-MEL was > 100 µM (inactive) in each case.

As to `C=CCSc1ncnc2c1ncn2C1OC(CO)C(O)C1O` (stereo not given), the GI50 is > 100 µM (inactive) in the test with HOP-18; 11.4 µM (inactive) in the test on DMS-114; > 100 µM (inactive) with XF498; 2.75 µM (inactive) in the test with DLD-1; > 100 µM (inactive) in the test on M19-MEL.

`Cc1cc2c(=O)cc(-c3ccc(O)cc3)oc2c(C(=O)O)c1C`: the GI50 with HOP-18, in the test with DMS-114, with XF498, with DLD-1 and with M19-MEL was > 100 µM (inactive) each time.

With `Nc1nc2c3nc(Nc4ccccc4)sc3nc(=S)n2c2sc(Nc3ccccc3)nc12`, the GI50 with HOP-18 was 36.1 µM (inactive); in the test on DMS-114 it was 20.3 µM (inactive); in the test with XF498 it was 1.98 µM (inactive); in the test on DLD-1 it was > 100 µM (inactive); in the test with M19-MEL, 13.4 µM (inactive).

`CCOC(=O)C/N=c1\nc(SC)sc2c(C(=O)OCC)nc(Sc3ccccc3)n12`: the GI50 is > 100 µM (inactive) in the test with HOP-18; 25.3 µM (inactive) with RXF 631; 62.7 µM (inactive) with DMS-114; 41.2 µM (inactive) with XF498; 34.2 µM (inactive) in the test on DLD-1; 34 µM (inactive) with M19-MEL.

In the case of `Cc1c(C(=O)/C=C/C=C/c2ccccc2)[n+]([O-])c2ccccc2[n+]1[O-]`, the GI50 was 45.2 µM (inactive) with HOP-18; 25.6 µM (inactive) in the test on DMS-114; 35 µM (inactive) in the test with XF498; 14.5 µM (inactive) with DLD-1; 34.3 µM (inactive) in the test on M19-MEL.

As to `COc1cc(OC)c2c(=O)c3cccc([N+](=O)[O-])c3n(C)c2c1`, the GI50 is < 0.01 µM (active) in the test on HOP-18, 34.5 µM (inactive) in the test with RXF 631, 69.2 µM (inactive) in the test with DMS-114 and > 100 µM (inactive) in the test with XF498.

Regarding `COc1cccc2c1C(=O)c1c(O)c3c(c(O)c1C2=O)C[C@@](O)(C(C)=O)C[C@@H]3OC1OC(C)C(O)C(N)C1Br` (stereo not given in full), the GI50 in the test on HOP-18 is 0.0404 µM (active); in the test on DMS-114, 0.0316 µM (active); with XF498, 0.129 µM (active); in the test on DLD-1 it was 0.0259 µM (active); in the test on T47D, 0.0585 µM (active); in the test on BT-549, 0.269 µM (active). Further, the GI50 in the test on M19-MEL is 0.116 µM (active).

As to `CCCCC(=O)OC[n+]1ccc2c(C)c3[nH]c4ccccc4c3c(C)c2c1`, the GI50 in the test with HOP-18 was 1.34 µM (inactive); in the test on RXF 631, 1.07 µM (active); in the test on DLD-1, 0.37 µM (active); in the test with T47D, 1.01 µM (active); in the test on M19-MEL, 1.07 µM (active); in the test on Hs-578T, 0.217 µM (active).

Turning to `Cc1ccc(-c2cc(-c3ccco3)nc(N)n2)o1`, the GI50 in the test on XF498 was > 100 µM (inactive).

`[O-][S+](Cc1ccccc1)c1nc2ccccc2nc1-c1cccs1` (stereo not given): the GI50 was 15.9 µM (inactive) in the test on HOP-18; 2.5 µM (inactive) in the test on DMS-114; 2.52 µM (inactive) with XF498; 11 µM (inactive) with DLD-1; 5.77 µM (inactive) in the test with M19-MEL.

Consider `CCCCC(C(=O)C(=O)Nc1ccccc1CC)C(=O)C(C)C` (stereo not given), for which the GI50 with RXF 631, with DMS-114, in the test on XF498, with DLD-1 and in the test with M19-MEL was > 100 µM (inactive) throughout.

On to `Cc1ccc2c(c1)-c1c3c(nn1C)-c1ccccc1SC3O2` (stereo not given), for which the GI50 in the test on HOP-18 was 8.43 µM (inactive); in the test on DMS-114, 32.3 µM (inactive); with XF498, 23.4 µM (inactive); in the test with DLD-1, > 100 µM (inactive); with M19-MEL, 81.3 µM (inactive).

Turning to `CC(C)(C)C1=CC(=C(P(=O)(O)O)P(=O)(O)O)C=C(C(C)(C)C)C1=O`, the GI50 in the test on HOP-18, in the test on RXF 631, in the test with DMS-114, in the test on DLD-1 and in the test with M19-MEL was > 50 µM (inactive) each time.

Take `CC/C(=C(\c1ccccc1)c1ccc(OCC[N+](C)(C)C)cc1)c1ccccc1` [TAMOXIFEN METHYL IODIDE]: the GI50 is 13.1 µM (inactive) in the test with HOP-18; 19.6 µM (inactive) with RXF 631; 9.12 µM (inactive) with DMS-114; 15.6 µM (inactive) in the test on DLD-1; 11.6 µM (inactive) with M19-MEL.
